{"source": "patent US5104859A", "about": "“Continuous administration of adenosine to reduce pulmonary vascular resistance” (priority 1990, dated 1992)", "key": {"[1]": {"test_system": "mean arterial blood pressure", "conditions": "dogs, cited from earlier work"}, "[2]": {"test_system": "atrio-ventricular (A-V) node", "assay": "Atrio-ventricular conductance / heart block", "type": "in vivo, human", "description": "In accordance with this invention, adenosine may be administered to human patients by continuous intravenous infusion to provide significant vasodilation and without significant heart blockage under two conditions. First, the heart blocking action of adenosine is not detected during anesthesia when the rate of administration is 0.35 milligrams of adenosine per kilogram of body weight per minute or less. Second, the heart blocking action of adenosine is not detected, even in conscious patients, at rates of administration of about 0.10 milligram of adenosine per kilogram of body weight per minute or less."}, "cardiovascular system": {"test_system": "cardiovascular system", "assay": "General activity profile of adenosine by continuous infusion", "conditions": "for tachyphylaxis / rebound hypertension (words): hypotension"}, "[3]": {"assay": "Plasma adenosine and metabolite concentrations during cardiopulmonary bypass (HPLC)", "conditions": "in vivo; for concentration: human, iv", "method": "In six cases the plasma adenosine levels were determined by high performance liquid chromatography (HPLC) (Fredholm and Sollevi, J. Physiol. (London), 313: 351-67 (1981) in arterial and in venous (venous lines to the oxygenator) blood. The adenosine metabolites inosine, hypoxanthine and uric acid were also determined by HPLC. The samples were collected as previously described (Sollevi, Acta. Physiol. Scand., 121: 165-72 (1984) at the intervals of 10, 20, 40 and 80 minutes during CPB and 20 minutes after CPB.\nStatistical significance (controls v. adenosine group) was determinted with Student's t-test for unpaired data. For significance within the groups the Wilcoxon Rank Sum test was used. p […] 0.05 was regarded as significant."}, "Solubility of adenosine": {"assay": "Solubility of adenosine", "type": "physicochemical", "conditions": "for solubility: read-out: solubility limit"}, "[4]": {"test_system": "oxygen consumption and lactate", "assay": "Oxygen contents, oxygen consumption and lactate during controlled hypotension", "type": "in vivo, human", "method": "The correct position was verified by x-ray.\nThe hemoglobin concentration was determined spectrophotometrically. […] Scand., 120: 171-76 (1984). […] (London), 313: 351-67 (1981). […] Arterial levels of dipyridamole were determined by HPLC. J. Chromatogr., 162: 98-103 (1979). […] Scand. Clin. Lab. Invest., 27:15-19 (1971).\nThe mean hypotensive period was 32±8 min.\nOxygen content was derived from the formula SO2*× 1.34×Hb+PO2× […]. Foex et al., Br. J. Anesth., 42: 803-4 (1970). The arteriovenous oxygen content difference (AVDO2) was determined and used to calculate total oxygen consumption (VO2) as the product of AVDO2 and QT. *SO2 =Oxygen saturation.\nOxygen contents, consumptions and lactate concentrations in nine patients before, during and 30 minutes after controlled hypotension are summarized in Table III."}, "myocardial blood flow": {"test_system": "myocardial blood flow", "conditions": "0.05 to about 0.1 mg/kg/min", "description": "Patients requiring abdominal vascular surgery, such as surgery for an aortic aneurysm, frequently also suffer from ischemic heart disease, or insufficient blood flow to the heart tissue, which may present undesirable complications in such surgery.\nFor such application, the rate of adenosine administration should be such that there is no more than a 10-20 per cent reduction in blood pressure."}, "[5]": {"conditions": "Control 2, 30 min after hypotension"}}, "note": "Entries after “also recorded” stand apart in the source; their conditions may differ. Read-outs that look alike come from different tables or passages of the source.", "data": [{"smiles": "Nc1ncnc2c1ncn2[C@@H]1O[C@H](CO)[C@@H](O)[C@H]1O", "note": "[adenosine]", "values": [{"measurement": "mean arterial pressure with adenosine after dipyridamole", "setting": "[1]; 50 ug/kg/minute adenosine", "value": 40, "unit": "mm/Hg"}, {"measurement": "adenosine dose required for induction of hypotension without dipyridamole", "setting": "[1]; pilot study, as much as", "value": "5 to 10", "unit": "mg/kg/min"}, {"measurement": "heart block in conscious patients", "setting": "[2]; about 0.10 mg/kg/min or less", "value": "not detected"}, {"measurement": "heart block / blockage of A-V conductance during anesthesia", "setting": "[2]; anesthesia, 0.35 mg/kg/min or less, 0.35 mg/kg", "value": "not detected; also recorded: does not occur; also recorded: no blockage of atrio-ventricular conductance is observed"}, {"measurement": "A-V activity at vasodilating doses", "setting": "[2]; continuous infusion", "value": "significant useful vasodilating action at dosages below those at which it has significant A-V activity"}, {"measurement": "toxicity", "setting": "cardiovascular system; amounts used in accordance with the invention", "value": "essentially non-toxic"}, {"measurement": "after-load and pre-load", "setting": "cardiovascular system; continuous infusion", "value": "little or no effect on cardiac pre-load; also recorded: reduce after-load, without having significant effect on pre-load"}, {"measurement": "tachyphylaxis / rebound hypertension (words)", "setting": "cardiovascular system", "value": "does not cause tachyphylaxis; also recorded: rebound hypertension is avoided"}, {"measurement": "tachyphylaxis / rebound hypertension (words)", "setting": "cardiovascular system; listed as Adenosine", "value": "without the occurrence of significant tachyphylaxis"}, {"measurement": "heart rate on after-load reduction", "setting": "cardiovascular system; in vivo", "value": "without significantly increasing heart rate"}, {"measurement": "concentration", "setting": "[3]", "value": "2 to 10", "unit": "µM"}, {"measurement": "concentration", "setting": "[3]; 20 min", "value": "0.4 ± 0.1", "unit": "µM"}, {"measurement": "Arterial concentration", "setting": "[3]", "value": "0.3 ± 0.1", "unit": "µM"}, {"measurement": "arterial levels", "setting": "[3]", "value": "approximately doubled"}, {"measurement": "solubility limit", "setting": "Solubility of adenosine; b421 prints mg/ml", "value": "5.5-6 milligrams per milliliter"}, {"measurement": "solubility", "setting": "Solubility of adenosine; b421 prints mg/ml", "value": "5.5 to 6", "unit": "mg/mL"}, {"measurement": "solubility", "setting": "Solubility of adenosine", "value": "~20", "unit": "mM"}, {"measurement": "decrease in AVDO2", "setting": "[4]", "value": "37±5", "unit": "%"}, {"measurement": "decrease in cerebral AVDO2", "setting": "[4]", "value": "37±13", "unit": "%"}, {"measurement": "decrease of VO2", "setting": "[4]", "value": "13±4", "unit": "%"}, {"measurement": "Arterial lactate concentration (La)", "setting": "[4]; [5]", "value": "1.82 ± 0.20", "unit": "mmol per liter"}, {"measurement": "Arterial oxygen tension (PaO2)", "setting": "[4]; [5]", "value": "93.0 ± 5.2", "unit": "mmHg"}, {"measurement": "Jugular arteriovenous lactate content difference (AVDj La)", "setting": "[4]; [5]", "value": "-0.06 ± 0.04", "unit": "mmol per liter"}, {"measurement": "Jugular arteriovenous oxygen content difference (AVDj O2)", "setting": "[4]; [5]", "value": "74.9 ± 7.7", "unit": "ml. per liter"}, {"measurement": "Total arteriovenous oxygen content difference (AVDT O2)", "setting": "[4]; [5]", "value": "46.8 ± 3.2", "unit": "ml per liter"}, {"measurement": "Total oxygen consumption (VT O2)", "setting": "[4]; [5]", "value": "235 ± 16", "unit": "ml per mm."}, {"measurement": "arterial lactate concentration", "setting": "[4]; during / after hypotension", "value": "not affected; also recorded: minor increase"}, {"measurement": "Arterial lactate concentration (La)", "setting": "[4]; during adenosine", "value": "1.73 ± 0.20", "unit": "mmol per liter"}, {"measurement": "Arterial oxygen tension (PaO2)", "setting": "[4]; during adenosine", "value": "97.5 ± 9.0", "unit": "mmHg"}, {"measurement": "Jugular arteriovenous lactate content difference (AVDj La)", "setting": "[4]; during adenosine", "value": "-0.05 ± 0.05", "unit": "mmol per liter"}, {"measurement": "Jugular arteriovenous oxygen content difference (AVDj O2)", "setting": "[4]; during adenosine", "value": "58.1 ± 14.1", "unit": "ml. per liter"}, {"measurement": "Total arteriovenous oxygen content difference (AVDT O2)", "setting": "[4]; during adenosine", "value": "29.3 ± 2.5", "unit": "ml per liter"}, {"measurement": "Total oxygen consumption (VT O2)", "setting": "[4]; during adenosine", "value": "193 ± 16", "unit": "ml per mm."}, {"measurement": "arterial oxygen tension", "setting": "[4]; during hypotension", "value": "remained unchanged"}, {"measurement": "arterio-jugular lactate content difference", "setting": "[4]; during hypotension", "value": "unaltered"}, {"measurement": "increase of cardiac output", "setting": "myocardial blood flow", "value": "10 to 20", "unit": "%"}, {"measurement": "reduction of blood pressure", "setting": "myocardial blood flow", "value": "10 to 20", "unit": "per cent"}, {"measurement": "oxygen consumption", "setting": "myocardial blood flow; words", "value": "without change in oxygen consumption"}]}]}
